Results from article PMC3260434 (Journal of Molecular Neuroscience, 2011).
No end group written: not given here.

Legend:
[1] = test system: primary neuronal cell cultures from rat cerebral cortex; assay: Assay of cyclic AMP formation; format: cell-based; conditions: for Increase in cyclic AMP production over the basal level: forskolin 1 μM, PACAP27 0.1 μM, VIP 3 μM, rat neuronal cell cultures
[2] = test system: astrocyte cultures from rat cerebral cortex; conditions: ref Woldan-Tambor et al. [2011]; cited from earlier work
[3] = test system: OX2R; conditions: heterologous expression systems; ref Sakurai et al. [1998]; Ammoun et al. [2003]; cited from earlier work

Molecule	Increase in cyclic AMP production over the basal level [1]	further results
C=C[C@@]1(C)CC(=O)[C@]2(O)[C@@]3(C)[C@@H](O)CCC(C)(C)[C@@H]3[C@H](O)[C@H](OC(C)=O)[C@@]2(C)O1 [forskolin]	three- to fivefold over the basal level	
PACAP27	three- to fivefold over the basal level	
VIP: vasoactive intestinal peptide (human, porcine, and rat) (HSDAVFTDNYTRLRKQMAVKKYLNSILN; ends and bridges not checked; UniProt P01282 125-152, looked up)	three- to fivefold over the basal level	
[Ala^11-D-Leu^15]orexin B		Effect on basal cyclic AMP accumulation ([1]; 0.001–1 μM, cultured rat cortical neurons, data not shown): No significant effects
orexin A: neuropeptide, an agonist of OX1R and OX2R; from NeoMPS (QPLPDCCRQKTCSCRLYELLHGAGNHAAGILTL; ends and bridges not checked; cysteine pairing not given here; UniProt O43612 34-66, looked up)		Effect on cyclic AMP synthesis in astrocyte cultures [2]: stimulatory effect
orexin B: neuropeptide derived from preproorexin; literature affinity only		Affinity of OX2R for orexins A and B [3]: equal affinity
